Experimental data reported in the supplement of paper PMC10307832.

Experiments:
Test in all cases: relative viability (nuclei count vs DMSO), 5 days (fraction); higher = more cells survive
[1] = compound: CC1=C(C=C(C=C1)NC(=O)C2=CC(=CC=C2)C(C)(C)C#N)NC3=CC4=C(C=C3)N=CN(C4=O)C [AZ628] + CC(=O)Nc1cccc(-n2c(=O)n(C3CC3)c(=O)c3c(Nc4ccc(I)cc4F)n(C)c(=O)c(C)c32)c1 [Trametinib] (partner 0.02 µM)
Summary of the method: (§1)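 Relative viability is defined as nuclei in treated wells over nuclei in vehicle wells. Duplicate plates were run and medians reported. Lung cancer cell lines in 1536-well plates were dosed by pin tool one day after seeding, with one drug or with a fixed anchor-drug dose plus five library-drug doses (not always all listed) in √10 steps, and nuclei were counted after 5 days.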

[2] = compound: CC1=C(C=C(C=C1)NC(=O)C2=CC(=CC=C2)C(C)(C)C#N)NC3=CC4=C(C=C3)N=CN(C4=O)C [AZ628] + N=C(N)NC(=N)NCCc1ccccc1 [Phenformin] (partner 250 µM)
Summary of the method: as §1

[3] = compound: C1CC2=C(C1)C=C(C=C2)OC3=NC(=C4C(=N3)N(C=N4)CC5=CC=C(C=C5)C6=CC=CC=C6)N[C@@H](CC7=CC=CC=C7)CO [QS11] + COc1cccc2cc(-c3nc([C@H]4CC[C@H](C(=O)O)CC4)n4ncnc(N)c34)[nH]c12 [OSI-027] (partner 0.5 µM)
Summary of the method: as §1

[4] = compound: C1CC2=C(C1)C=C(C=C2)OC3=NC(=C4C(=N3)N(C=N4)CC5=CC=C(C=C5)C6=CC=CC=C6)N[C@@H](CC7=CC=CC=C7)CO [QS11] + Cc1nc(Nc2ncc(C(=O)Nc3c(C)cccc3Cl)s2)cc(N2CCN(CCO)CC2)n1 [Dasatinib] (partner 0.075 µM)
Summary of the method: as §1

Cell Line	relative viability ([1]; first compound 0.08 µM)	relative viability ([1]; first compound 0.253 µM)	relative viability ([1]; first compound 0.8 µM)	relative viability ([1]; first compound 2.53 µM)	relative viability ([1]; first compound 8 µM)	relative viability ([2]; first compound 0.08 µM)	relative viability ([2]; first compound 0.253 µM)	relative viability ([2]; first compound 0.8 µM)	relative viability ([2]; first compound 2.53 µM)	relative viability ([2]; first compound 8 µM)	relative viability ([3]; first compound 0.08 µM)	relative viability ([3]; first compound 0.253 µM)	relative viability ([3]; first compound 0.8 µM)	relative viability ([3]; first compound 2.53 µM)	relative viability ([3]; first compound 8 µM)	relative viability ([4]; first compound 0.08 µM)	relative viability ([4]; first compound 0.253 µM)	relative viability ([4]; first compound 0.8 µM)	relative viability ([4]; first compound 2.53 µM)	relative viability ([4]; first compound 8 µM)
NCI-H2009	0.208	0.177	0.198	0.179	0.194	0.447	0.395	0.283	0.346	0.273	0.66	0.639	0.53	0.448	0.462	0.277	0.295	0.261	0.209	0.229
HCC-15	0.334	0.291	0.272	0.25	0.243	0.479	0.4	0.366	0.417	0.224	0.641	0.674	0.646	0.665	0.475	0.649	0.611	0.532	0.73	0.49
NCI-H1395	0.954	0.739	0.794	0.732	0.776	0.478	0.39	0.423	0.436	0.422	0.603	0.718	0.626	0.735	0.637	0.387	0.361	0.382	0.408	0.419
CAL-12T	0.295	0.248	0.259	0.193	0.305	0.553	0.492	0.335	0.414	0.336	0.656	0.457	0.498	0.385	0.407	0.4	0.365	0.466	0.368	0.334
COR-L 105	0.435	0.401	0.382	0.352	0.36	0.541	0.483	0.4	0.488	0.323	0.711	0.521	0.547	0.629	0.447	0.281	0.267	0.334	0.423	0.331
BEN	1.12	1.01	0.806	1.02	0.783	0.265	0.331	0.268	0.27	0.231	0.304	0.316	0.309	0.33	0.3	0.29	0.37	0.352	0.325	0.33
NCI-H520	0.469	0.459	0.273	0.23	0.16	0.583	0.452	0.64	0.476	0.398	0.196	0.265	0.297	0.175	0.268	0.186	0.254	0.191	0.208	0.167
ChaGo-K-1	0.911	0.879	0.881	0.873	0.839	0.559	0.464	0.398	0.459	0.373	0.358	0.666	0.749	0.659	0.569	0.41	0.556	0.518	0.655	0.618
NCI-H2405	0.387	0.319	0.277	0.286	0.313	0.153	0.202	0.229	0.235	0.24	0.626	0.663	0.64	0.654	0.694	0.196	0.2	0.206	0.276	0.325
NCI-H2087	0.18	0.191	0.161	0.152	0.184	0.348	0.289	0.246	0.27	0.169	0.523	0.5		0.532	0.532	0.745	0.963		0.963	1.2
NCI-H460	0.161	0.0829	0.0419	0.0397	0.0115	0.52	0.511	0.452	0.404	0.189	0.719	0.756	0.663	0.446	0.257	0.523	0.462	0.329	0.359	0.291
LCLC-103H	0.58	0.586	0.657	0.565	0.584	0.358	0.329	0.343	0.302	0.308	0.434	0.45	0.469	0.49	0.502	0.403	0.511	0.447	0.601	0.576
NCI-H1650	0.502	0.541	0.329	0.327	0.497	0.537	0.403	0.33	0.333	0.335	0.58	0.549	0.642	0.547	0.396	0.288	0.27	0.329	0.308	0.284
NCI-H441	0.405	0.306	0.386	0.283	0.437	0.991	0.71	0.822	0.712	0.469	0.614	0.619	0.76	0.566	0.548	0.802	0.689	0.496	0.786	0.827
